≈ marks a conversion by molar mass, not a printed value.

As a reminder, the MIC is the smallest concentration in the dilution series that meets the test's criterion for growth inhibition. A higher MIC goes with a need for much substance.

Format in all cases: cell-based
One test has as its system Microsporum gypseum 24. As to the kind of experiment: Broth microdilution MIC (M38-A), filamentous fungi, strain III. The conditions noted are these: Nannizzia gypsea. How it is done:
(§1) For the experiments of the present invention, the dermatophyte-type fungi strains that were obtained from clinical isolates and laboratory isolates, as described in Table 2 as follows, were used:
(§2) The fungal strains were grown on agar potato medium in a sloping chute at a temperature of 30° C. for a period of 7 to 15 days.
(§3) For the experiments, the compound 1-[2-(2,4-dichlorophenyl)-2-{[4-(trifluoromethyl)benzyl]oxy}ethyl]-1H-imidazole (BL-123) in the form of its nitrate salt and miconazole nitrate were used. Both compounds were dissolved in dimethyl sulfoxide (DMSO) to match the final concentration of the compound equal to or less than 1%.
(§4) The methodology used to test the sensitivity of the agent was of broth microdilution according to the method described in Standard M38-A (Reference method for broth dilution tests for determining the sensitivity to antifungal therapy for filamentous fungi; NCCLS, volume 22 No. 16, USA, 2008) as follows.
(§5) The fungus was cultivated pursuant to item 4.1. To the tubes wherein the fungi were grown, 5 mL of saline solution were added in order to extract the fungi from the agar surface. Then, this homogeneous suspension was transferred to a new tube and the colony-forming units (CFUs) were quantified according to counting methods: (i) in Sabouraud dextrose agar plates and (ii) in a Neubauer chamber.
(§6) Then, the fungi strains listed in Table 2 were inoculated in duplicate in a 96-well plate. There were used inocula of from 2 to 6×10^3 CFU/mL of fungi, per well, in a total volume of 0.2 mL of RPMI-1640 (containing L-glutamine and without bicarbonate) buffered at pH 7.0 with MOPS (acid 3-(N-morpholine) 15 propanesulfonic). The procedure was performed in a laminar flow.
(§7) The compounds to be tested were added in a serial dilution, in duplicate, in final concentrations of 16 μg/mL; 8 μg/mL; 4 μg/mL; 2 μg/mL; 1 μg/mL; 0.5 μg/mL; 0.25 μg/mL; 0.125 μg/mL; 0.0625 μg/mL; or 0.03125 μg/mL in culture medium present in each well.
(§8) The incubation of fungi with these compounds was performed by 4, 5, 6 and 7 days at temperatures from 30 to 35° C.
(§9) The fungi quantification was carried out with the growth of fungi in each well being compared to the growth occurred in the negative control by means of a mirror reading. The negative control is represented by fungi grown in culture medium in the absence of the tested compounds. The methodology of this comparison is the numerical rating to which the microdilution well was submitted. […]

Test [1] relates to Trichophyton verrucosum 381. As to the kind of experiment: Broth microdilution MIC (M38-A), filamentous fungi, strain IV. How it is done:
as §1, §2, §3, §4, §5, §6, §7, §8, §9
(In general: Broth dilution looks for growth in wells or tubes with falling amounts of substance.)

For test [2], the system named is Trichophyton mentagrophytes 40004. As to the kind of experiment: Broth microdilution MIC (M38-A), filamentous fungi, strain X. How it is done:
as §1, §2, §3, §4, §5, §6, §7, §8, §9

In test [3] the test system is Trichophyton rubrum 40005. As to the kind of experiment: Broth microdilution MIC (M38-A), filamentous fungi, strain XI. How it is done: as §1, §2, §3, §4, §5, §6, §7, §8, §9
The subject of test [4] is Microsporum gypseum 40051. As to the kind of experiment: Broth microdilution MIC (M38-A), filamentous fungi, strain XII. The conditions noted are these: Nannizzia gypsea. How it is done: as §1, §2, §3, §4, §5, §6, §7, §8, §9
[5] abbreviates: 96 h, strain III 24, reading Day 4, average of four experiments.
[6] abbreviates: 168 h, strain III 24, reading Day 7, average of four experiments.
Where [7] appears, read: 96 h, strain IV 381, reading Day 4, average of four experiments.
Where [8] appears, read: 168 h, strain IV 381, reading Day 7, average of four experiments.
Setting [9] is: 96 h, strain X 40004, reading Day 4, average of four experiments.
Where [10] appears, read: 168 h, strain X 40004, reading Day 7, average of four experiments.
Setting [11] is: 96 h, strain XI 40005, reading Day 4, average of four experiments.
Setting [12] is: 168 h, strain XI 40005, reading Day 7, average of four experiments.
Where [13] appears, read: 96 h, strain XII 40051, reading Day 4, average of four experiments.
The mark [14] stands for this setting: 168 h, strain XII 40051, reading Day 7, average of four experiments.

Consider `FC(F)(F)c1ccc(COC(Cn2ccnc2)c2ccc(Cl)cc2Cl)cc1` (centres unmarked) [BL-123, 1-[2-(2,4-dichlorophenyl)-2-{[4-(trifluoromethyl)benzyl]oxy}ethyl]-1H-imidazole], for which the MIC in the test with Microsporum gypseum 24 (setting [5]) is 0.25 µg/mL (≈ 0.602 µM); against Microsporum gypseum 24 (setting [6]), 0.25 µg/mL (≈ 0.602 µM); in test [1] (setting [7]), more than 16 µg/mL; in test [1] (setting [8]), more than 16 µg/mL; in test [2] (setting [9]) it was 0.25 µg/mL (≈ 0.602 µM); in test [2] (setting [10]), 0.5 µg/mL (≈ 1.2 µM). For the same molecule, the minimal inhibitory concentration (MIC) came to 0.25 µg/mL (≈ 0.602 µM) in test [3] (setting [11]), 0.5 µg/mL (≈ 1.2 µM) in test [3] (setting [12]), 0.03 µg/mL (≈ 0.0722 µM) in test [4] (setting [13]) and 0.03 µg/mL (≈ 0.0722 µM) in test [4] (setting [14]).

In the case of `Clc1ccc(COC(Cn2ccnc2)c2ccc(Cl)cc2Cl)c(Cl)c1` (centres unmarked) [Miconazole, miconazole, reference compound], the MIC was 0.05 µg/mL (≈ 0.12 µM) against Microsporum gypseum 24 (setting [5]); 0.05 µg/mL (≈ 0.12 µM) in the test on Microsporum gypseum 24 (setting [6]); more than 16 µg/mL in test [1] (setting [7]); more than 16 µg/mL in test [1] (setting [8]); 0.5 µg/mL (≈ 1.2 µM) in test [2] (setting [9]); 1 µg/mL (≈ 2.4 µM) in test [2] (setting [10]). The MIC was determined as 0.5 µg/mL (≈ 1.2 µM) in test [3] (setting [11]), 1 µg/mL (≈ 2.4 µM) in test [3] (setting [12]), 0.03 µg/mL (≈ 0.0721 µM) in test [4] (setting [13]) and 0.06 µg/mL (≈ 0.144 µM) in test [4] (setting [14]).
